# Biological target: T1, STING (Homo sapiens, UniProt Q86WV6)
# T1 construct: gene STING1; human STING WT protein 6His-tagged (recombinant)
# Test: HTRF ligand-competitive binding assay with recombinant human STING; supported by CETSA in THP-1 cells
# T1 sequence (Q86WV6 whole entry): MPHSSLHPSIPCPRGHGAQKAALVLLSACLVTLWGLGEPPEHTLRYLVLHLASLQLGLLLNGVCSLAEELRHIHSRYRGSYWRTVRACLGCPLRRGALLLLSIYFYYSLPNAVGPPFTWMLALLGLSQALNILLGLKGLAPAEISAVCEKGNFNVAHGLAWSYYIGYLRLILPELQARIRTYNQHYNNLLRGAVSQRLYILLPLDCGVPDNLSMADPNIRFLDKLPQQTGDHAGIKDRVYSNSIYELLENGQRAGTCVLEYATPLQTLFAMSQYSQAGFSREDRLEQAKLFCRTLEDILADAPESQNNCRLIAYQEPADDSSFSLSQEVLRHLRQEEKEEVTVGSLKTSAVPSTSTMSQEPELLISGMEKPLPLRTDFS
smiles,measurement,value
Nc1ccc(C(=O)N2CCc3cc(S(=O)(=O)N4C[C@H](c5ccccc5)NC4=O)ccc32)cc1 [DW2282],STING competitive binding potency,> 10 µM

# — PMC8773171, “Development of Small-Molecule STING Activators for Cancer Immunotherapy” (Biomedicines, 2021)
